The target in the first experiment is T1, Ubiquitin-like modifier-activating enzyme ATG7 (Homo sapiens, UniProt O95352).
T1 sequence (O95352 whole entry): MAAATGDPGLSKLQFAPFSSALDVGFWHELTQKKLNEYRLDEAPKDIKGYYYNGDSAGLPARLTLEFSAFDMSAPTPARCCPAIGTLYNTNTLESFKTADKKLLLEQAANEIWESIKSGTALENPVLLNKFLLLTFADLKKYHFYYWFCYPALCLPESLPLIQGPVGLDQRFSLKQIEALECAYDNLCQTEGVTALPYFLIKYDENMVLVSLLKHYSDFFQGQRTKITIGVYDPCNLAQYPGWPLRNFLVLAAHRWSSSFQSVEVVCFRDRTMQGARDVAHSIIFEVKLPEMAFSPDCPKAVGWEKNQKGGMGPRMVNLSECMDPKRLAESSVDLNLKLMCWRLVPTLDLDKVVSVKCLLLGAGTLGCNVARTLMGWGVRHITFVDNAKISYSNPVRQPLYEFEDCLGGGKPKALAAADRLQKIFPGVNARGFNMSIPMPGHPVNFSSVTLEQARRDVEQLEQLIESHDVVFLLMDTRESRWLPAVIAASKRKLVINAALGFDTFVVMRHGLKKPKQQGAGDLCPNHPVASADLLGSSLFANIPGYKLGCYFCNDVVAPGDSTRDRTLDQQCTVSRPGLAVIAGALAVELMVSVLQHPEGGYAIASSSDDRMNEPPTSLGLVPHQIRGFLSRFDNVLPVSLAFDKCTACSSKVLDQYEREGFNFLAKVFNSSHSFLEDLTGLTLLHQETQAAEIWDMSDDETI
Briefly: Inhibition of recombinant His-tagged human ATG7 incubated for 105 mins in presence of GST-tagged ATG3 and Flag-tagged Gabarap and measured after 2 hrs by FRET assay.
As usually defined, the IC50 is the concentration needed to halve the response being measured. Take `Nc1ncnc2c1c(SCCO)nn2[C@@H]1O[C@H](COS(N)(=O)=O)[C@@H](O)[C@@H]1F`: the IC50 lay in the range of 20 to 50 nM.

On to `CCc1nn([C@H]2C[C@H](O)[C@H](COS(N)(=O)=O)O2)c2ncnc(N)c12`, for which the half-maximal inhibitory concentration (IC50) was above 500 nM.

A further experiment addresses T2, Ubiquitin-like modifier-activating enzyme ATG7 (Homo sapiens) (UniProt O95352).
T2 sequence (whole entry): T1 sequence (O95352 whole entry)
The experiment in a line: Inhibition of recombinant His-tagged human ATG7 at 0.111 uM incubated for 105 mins in presence of GST-tagged ATG3 and Flag-tagged Gabarap and measured after 2 hrs by FRET assay relative to control.
One may read the inhibition as the drop in the measured response relative to a control, in per cent. With `Cc1ccc(Sc2nn([C@H]3C[C@H](O)[C@@H](COS(N)(=O)=O)O3)c3ncnc(N)c23)c(F)c1`, the inhibition is 59 to 64%.

With `Nc1ncnc2c1cnn2[C@H]1C[C@H](O)[C@H](COS(N)(=O)=O)O1`, the inhibition was determined as 5%.

For the compound `CC[C@@H](C)Sc1nn([C@@H]2O[C@H](COS(N)(=O)=O)[C@@H](O)[C@@H]2F)c2ncnc(N)c12`, the inhibition is 63%.

In the case of `CC[C@H](C)Sc1nn([C@@H]2O[C@H](COS(N)(=O)=O)[C@@H](O)[C@@H]2F)c2ncnc(N)c12`, the inhibition was found to be 61%.

(Values after ChEMBL document CHEMBL4418315, “Atg7 inhibitors and the uses thereof” (2018).)
